{
  "source": "patent US7101872B2",
  "about": "“Farnesyl dibenzodiazepinone, and processes for its production” (Ecopia BioSciences, Inc., priority 2003, dated 2006)",
  "format_in_all_cases": "cell-based",
  "key": {"human 5-LO": {"target": "T1, human 5-LO (Homo sapiens, UniProt P09917)", "T1 construct": "Human peripheral blood mononuclear cells (PMNs) were isolated through a Ficoll-Paque density gradient; endogenous in cells; host or cells: human peripheral blood cells (PMNs) isolated by Ficoll-Paque, stimulated with A23187", "test": "Human 5-lipoxygenase activity in stimulated PMNs (Leukotriene B4 EIA)", "quoted_text": "Experimental Design: Human peripheral blood mononuclear cells (PMNs) were isolated through a Ficoll-Paque density gradient. PMNs were stimulated by addition A23187 (30 μM final concentration). […] Following incubation, samples were neutralized with NaOH and centrifuged. Leukotriene B4 content was measured in the supernatant using an Enzyme Immunosorbant Assay (EIA) assay."}, "SNB-19": {"system": "SNB-19", "test": "NCI panel SRB growth inhibition", "conditions": "Homo sapiens, SNB-19, CNS, 48 h", "method": "(§1) The operation of this unique screen utilizes […] different human tumor cell lines, representing leukemia, melanoma and cancers of the lung, colon, brain, ovary, breast, prostate, and kidney.\n(§2) Culture conditions and plating: The human tumor cell lines of the cancer-screening panel were grown in RPMI 1640 medium containing 5% fetal bovine serum and 2 mM L-glutamine. For a typical screening experiment, cells were inoculated into 96 well microtiter plates in 100 μL at plating densities ranging from 5,000 to 40,000 cells/well depending on the doubling time of individual cell lines (Table 5). After cell inoculation, the microtiter plates were incubated at 37° C., 5% CO2, 95% air and 100% relative humidity for 24 h prior to addition of experimental drugs. After 24 h, two plates of each cell line were fixed in situ with TCA, to represent a measurement of the cell population for each cell line at the time of drug addition (Tz). Evaluation of inhibitory activity on cell proliferation: ECO-04601 was provided as a lyophilized powder with an estimated purity of 90+%. The compound was stored at −20° C. until day of use. ECO-04601 was solubilized in dimethyl sulfoxide at 400-fold the desired final maximum test concentration. At the time of drug addition, an aliquot of frozen concentrate was thawed and diluted to twice the desired final maximum test concentration with complete medium containing 50 μg/mL gentamicin. Additional four, 10-fold or Y2 log serial dilutions were made to provide a total of five drug concentrations plus control. Aliquots of 100 μl of these different drug dilutions were added to the appropriate microtiter wells already containing 100 μl of medium, resulting in the required final drug concentrations (8.0×10^−5 M to 8.0×10^−9 M).\n(§3) Following drug addition, the plates were incubated for an additional 48 h at 37° C., 5% CO2, 95% air, and 100% relative humidity. For adherent cells, the assay was terminated by the addition of cold TCA. Cells were fixed in situ by the gentle addition of 50 μl of cold 50% (w/v) TCA (final concentration, 10% TCA) and incubated for 60 minutes at 4° C. Supernatants were discarded, and the plates were washed five times with tap water and air-dried. Sulforhodamine B (SRB) solution (100 μl) at 0.4% (w/v) in 1% acetic acid was added to each well, and plates were incubated for 10 minutes at room temperature. After staining, unbound dye was removed by washing five times with 1% acetic acid and the plates were air-dried. Bound stain was subsequently solubilized with 10 mM trizma base, and the absorbance was read on an automated plate reader at a wavelength of 515 nm. For suspension cells, the methodology was the same except that the assay was terminated by fixing settled cells at the bottom of the wells by gently adding 50 μl of 80% TCA (final concentration, 16% TCA).\n(§4) The growth inhibitory activity of ECO-04601 was measured by NCI utilizing the GI50 value, rather than the classical IC50 value."}, "T-47D": {"system": "T-47D", "test": "NCI panel SRB growth inhibition", "conditions": "Homo sapiens, T47D, Breast, 48 h", "method": "as §1, §2, §3, §4"}, "SK-OV-3": {"system": "SK-OV-3", "test": "NCI panel SRB growth inhibition", "conditions": "Homo sapiens, SK-OV-3, Ovarian, 48 h", "method": "as §1, §2, §3, §4"}, "786-0": {"system": "786-0", "test": "NCI panel SRB growth inhibition", "conditions": "Homo sapiens, 786-0, Renal, 48 h", "method": "as §1, §2, §3, §4"}, "M14": {"system": "M14", "test": "NCI panel SRB growth inhibition", "conditions": "Homo sapiens, M14, Melanoma, 48 h", "method": "as §1, §2, §3, §4"}, "SK-MEL-28": {"system": "SK-MEL-28", "test": "NCI panel SRB growth inhibition", "conditions": "Homo sapiens, SK-MEL-28, Melanoma, 48 h", "method": "as §1, §2, §3, §4"}, "HS 578T": {"system": "HS 578T", "test": "NCI panel SRB growth inhibition", "conditions": "Homo sapiens, Breast, 48 h", "method": "as §1, §2, §3, §4"}, "COLO 205": {"system": "COLO 205", "test": "NCI panel SRB growth inhibition", "conditions": "Homo sapiens, COLO 205, Colon, 48 h", "method": "as §1, §2, §3, §4"}, "U251": {"system": "U251", "test": "NCI panel SRB growth inhibition", "conditions": "Homo sapiens, U-251, U251, CNS, 48 h", "method": "as §1, §2, §3, §4"}, "A549/ATCC": {"system": "A549/ATCC", "test": "NCI panel SRB growth inhibition", "conditions": "Homo sapiens, Non-Small Cell Lung, 48 h", "method": "as §1, §2, §3, §4"}, "OVCAR-4": {"system": "OVCAR-4", "test": "NCI panel SRB growth inhibition", "conditions": "Homo sapiens, OVCAR-4, Ovarian, 48 h", "method": "as §1, §2, §3, §4"}, "OVCAR-5": {"system": "OVCAR-5", "test": "NCI panel SRB growth inhibition", "conditions": "Homo sapiens, OVCAR-5, Ovarian, 48 h", "method": "as §1, §2, §3, §4"}, "SF-268": {"system": "SF-268", "test": "NCI panel SRB growth inhibition", "conditions": "Homo sapiens, SF-268, CNS, 48 h", "method": "as §1, §2, §3, §4"}, "NCI/ADR-RES": {"system": "NCI/ADR-RES", "test": "NCI panel SRB growth inhibition", "conditions": "Homo sapiens, Breast, 48 h", "method": "as §1, §2, §3, §4"}, "A498": {"system": "A498", "test": "NCI panel SRB growth inhibition", "conditions": "Homo sapiens, A498, Renal, 48 h", "method": "as §1, §2, §3, §4"}, "NCI-H226": {"system": "NCI-H226", "test": "NCI panel SRB growth inhibition", "conditions": "Homo sapiens, NCI-H226, Non-Small Cell Lung, 48 h", "method": "as §1, §2, §3, §4"}, "SNB-75": {"system": "SNB-75", "test": "NCI panel SRB growth inhibition", "conditions": "Homo sapiens, SNB-75, CNS, 48 h", "method": "as §1, §2, §3, §4"}, "[1]": {"system": "Micrococcus luteus ATCC 9341", "test": "MIC broth microdilution", "conditions": "ATCC9341, 35° C., 24 hrs", "method": "(§5) The MIC determination of ECO-04601 against bacteria strains (Bacillus subtilis—ATCC 23857; Micrococcus luteus—ATCC 9341) was performed using broth microdilution assay (Methods for Dilution Antimicrobial Susceptibility Tests for Bacteria That Grow Aerobically; Approved Standard-Fifth Edition. NCCLS document M7-A5 (ISBN 1-56238-394-9). NCCLS, 940 West Valley Road, Suite 1400, Wayne, Pa. 19087-1898 USA.). Test compound preparation: […] The first dilution (3.2 mg/ml) was prepared by resuspending 0.5 mg of each test article in 156.25 μl of DMSO. […] Assay plates were incubated at 35° C. for 24 hrs."}, "[2]": {"system": "Bacillus subtilis ATCC 23857", "test": "MIC broth microdilution", "conditions": "ATCC23857, 35° C., 24 hrs", "method": "as §5"}},
  "note": "pEC50, pIC50: −log10 of the molar value.",
  "data": [
    {"smiles": "CC(C)=CCC/C(C)=C/CC/C(C)=C/CN1C(=O)c2cccc(O)c2Nc2c(O)cc(O)cc21", "note": "[ECO-04601, 10-farnesyl-4,6,8-trihydroxy-dibenzodiazepin-11-one]", "values": [
      {"measurement": "pIC50", "setting": "human 5-LO; A23187-stimulated human PMNs, 15 minutes at 37° C., Leukotriene B4 EIA, read-out: apparent IC50, activity of human 5-LO", "result": 6.03},
      {"measurement": "pEC50", "setting": "human 5-LO; FIG. 8 legend", "result": 6.03},
      {"measurement": "GI50", "setting": "SNB-19", "result": 2900, "unit": "nM"},
      {"measurement": "GI50", "setting": "T-47D", "result": 770, "unit": "nM"},
      {"measurement": "GI50", "setting": "SK-OV-3", "result": 4, "unit": "µM"},
      {"measurement": "GI50", "setting": "786-0", "result": 6.99, "unit": "µM"},
      {"measurement": "GI50", "setting": "M14", "result": 4.57, "unit": "µM"},
      {"measurement": "GI50", "setting": "SK-MEL-28", "result": 11.6, "unit": "µM"},
      {"measurement": "GI50", "setting": "HS 578T", "result": 2760, "unit": "nM"},
      {"measurement": "GI50", "setting": "COLO 205", "result": 12.7, "unit": "µM"},
      {"measurement": "GI50", "setting": "U251", "result": 2190, "unit": "nM"},
      {"measurement": "GI50", "setting": "A549/ATCC", "result": 9.1, "unit": "µM"},
      {"measurement": "GI50", "setting": "OVCAR-4", "result": 9.67, "unit": "µM"},
      {"measurement": "GI50", "setting": "OVCAR-5", "result": 2810, "unit": "nM"},
      {"measurement": "GI50", "setting": "SF-268", "result": 4.94, "unit": "µM"},
      {"measurement": "GI50", "setting": "NCI/ADR-RES", "result": 18.3, "unit": "µM"},
      {"measurement": "GI50", "setting": "A498", "result": 22.3, "unit": "µM"},
      {"measurement": "GI50", "setting": "NCI-H226", "result": 2000, "unit": "nM"},
      {"measurement": "GI50", "setting": "SNB-75", "result": 7.71, "unit": "µM"},
      {"measurement": "MIC", "setting": "[1]", "result": 6.25, "unit": "µg/mL"},
      {"measurement": "MIC", "setting": "[2]", "result": 12.5, "unit": "µg/mL"}
    ]}
  ]
}
